# Test results as given in patent publication US20240294465A1, “NOVEL ANTI-FIBROTIC DRUGS” (HELMHOLTZ ZENTRUM MUNCHEN - DEUTSCHES FORSCHUNGSZENTRUM FUR …, priority 2021, published 2024).
# Entries after “also recorded” stand apart in the source; their conditions may differ.
# Legend:
# [1] = system: cell shape, microtubules and actin of phLFs; experiment: Fluorescence microscopy of cell morphology and cytoskeleton (α-Tubulin, phalloidin, calcein); type: cell-based, human
# From the text: FIG. 14: Dose-response relationships of N23Ps, live imaging of ECM deposition and cell-morphology switch. (A) Structural formula for Tranilast and N23Ps (example 84 and example 85) indicating 2-butoxy-substitution at R1 and IC50 values. […] Cell nuclei in blue (HOECHST). Scale bar=500 μm. […] Cell nuclei were stained by Hoechst (blue). Scale bar=50 μm. (F) Confocal images of subconfluent phLFs+TGFβ1 stained for Hoechst (blue), calcein (green) and phalloidin (red) showing round cell morphologies after treatment with example 84 as well as extensive actin cytoskeletal rearrangements (red). […] Scale bar=500 μm. Data are presented as means t SEM. Differences between groups were evaluated with paired t-tests. * p<0.05. n=3 (three different patient phLFs).
# FIG. 16: (A) Fluorescence wide-field microscopy images (10× objective in low magnification and resolution) of phLFs treated with 5 μM DMSO, 50 μM example 84 and 100 μM Tranilast, and stained for Hoechst (blue), α-Tubulin (green) and filamentous actin (red, Phalloidin). […] Scale bar=100 μm. (B) Fluorescence wide-field microscopy images (63× objective in high magnification and resolution) of phLFs treated with either 5 μM DMSO or 50 μM example 84, and stained for Hoechst (blue), a.-Tubulin (green) and filamentous actin (red, Phalloidin). […] Scale bar=[…]. iPSC=induced pluripotent stem cells. […] Scale bar=350 μm. […] Thus, the compounds of the present invention show similar effects like colchicine on microtubules (41). Therefore, the compounds of the present invention are also for use in the treatment of inflammatory diseases such as arthrolithiasis, familiar mediterranean fever and pericarditis amongst others by the inhibition of polymorphonuclear leukocyte and macrophage motility as well as intracellular vesicular transport mechanisms.
# For standard immunofluorescence staining, 5000 phLFs were seeded into 96 well imaging plates with a flat bottom (Cat #353376, BD Biosciences). After incubation, cells were fixed with either 4% PFA for 30 min at 37° C. or 100% methanol for 2 min at −20° C. […]
# [2] = system: cellular contractility of phLFs; experiment: 3D collagen gel contractility assay of primary human lung fibroblasts; type: cell-based; conditions: n=3 patient phLFs
# Experimental: In a 96-well imaging plate 50 μl 3D collagen gels were casted per well as described before (30), and 20.000 phLFs per well were seeded on top. Cells were treated with 1 ng/mL TGFβ1 and/or example 84. After 72 h cells were fixed with 4% paraformaldehyde. Collagen gels were imaged using an Axiolmager2 (Zeiss) and the gel diameter was determined using Zen Blue v2.5 (Zeiss).
# [3] = system: phLFs; experiment: Cytotoxicity assays (MTT, live/dead calcein, caspase 3/7); type: cell-based; conditions: confluent phLFs+TGFβ1
# From the text: Viability/Cytotoxicity Assay Kit for Animal Live and Dead Cells was obtained from Biotium, Cat. No. 3002). CellEvent™ Caspase 3/7 Green Detection Reagent was acquired from Invitrogen, Cat. No. C10423. For MTT-assays, Thiazolyl Blue Tetrazolium was bought from SigmaAldrich (M5655-1G). All these kits and assays were used according to the manufacturer's instructions.
# [4] = system: CXCL8/IL-8; experiment: Human precision cut lung slices (PCLS) with fibrotic cocktail: IL-8 ELISA; type: cell-based; conditions: living human PCLS
# Experimental: PCLS were prepared as described before (31, 32). Shortly, PCLS were prepared from tumor-free peri-tumor tissue. The lung tissue was inflated with 3% agarose solution and solidified at 4° C. Tissue blocks were cut in μm thick PCLS using a vibration microtome Hyrax V50 (Zeiss). PCLS were cultured in DMEM F-12 medium and treated with a profibrotic cocktail, as described before (31), or vehicle, as well as with small molecules or vehicles for 7 days. After culturing and treatments, supernatants were harvested. PCLS were […] washed in PBS and protein was extracted as previously described (33). Briefly, PCLS were pooled in an Eppendorf tube and lysed in 500 μl ice-cold RIPA buffer (50 mM Tris-CI pH 7.4, 150 mM NaCl, 1% NP40, 0.25% Na-deoxycholate) containing 1× Roche complete mini protease inhibitor cocktail (Roche, Cat. #11697498001). After an incubation of 2 hours rotating at 4° C., the lung slices were removed from the lysates and the protein content was measured.
# Cells were scraped off the plastic dish directly into 200 μl ice-cold RIPA buffer containing 1× Roche complete mini protease inhibitor cocktail. […] CXCL/IL-8 concentrations were determined using Human IL-8/CXCL8 DuoSet ELISA (DY208-05) according to the manufacturer's protocol.
smiles,measurement,setting,value
"CCCCOc1ccccc1NC(=O)/C=C/c1ccc(OC)c(OC)c1 [Example 84, (E)-N-(2-butoxyphenyl)-3-(3,4-dimethoxyphenyl)acrylamide]",cell morphology,"[1]; b48: example 84 50 μM, Tranilast 100 μM",significant changes in cell-shape and eccentricity towards round cells; also recorded: cell-shape switch towards round cell morphologies
same,actin filaments (Phalloidin),[1]; example 84 50 μM,without affecting actin filaments
same,microtubules (α-Tubulin staining),"[1]; example 84 50 μM, Tranilast 100 μM","depolymerized, that is non-filamentous, microtubules"
same,cellular contractility (collagen gel),[2],significant inhibition of cellular contractility
same,viability (calcein staining),[3],proving viability
same,CXCL8/IL-8 (ELISA),[4],diminution of pro-fibrotic CXCL8/IL-8
